Experimental data: ChEMBL document CHEMBL4038270, “Synthesis of heterocyclic ring-fused tricyclic diterpene analogs as novel inhibitors of RANKL-induced osteoclastogenesis and bone resorption” (Eur J Med Chem, 2017)
The source made the active and inactive calls. The rule behind the calls is not given here.

Key:
[1] = Inhibition of RANKL-induced C57BL/6 mouse bone marrow monocytes differentiation into osteoclasts at 0.1 uM after 6 days in presence of M-CSF by tartrate-resistant acid phosphatase staining based assay relative to control; format: functional; conditions: C57BL/6, Bone marrow monocyte, 144 h
Bone marrow monocyte [2] = experiment: Inhibition of RANKL-induced NFATc1 mRNA expression in C57BL/6 mouse bone marrow monocytes at 10 uM in presence of M-CSF by SYBR green-dye based qRT-PCR analysis; format: functional, cell-based; conditions: TDE = time-dependent effect
Bone marrow monocyte [3] = experiment: Inhibition of RANKL-induced TRAP mRNA expression in C57BL/6 mouse bone marrow monocytes at 10 uM in presence of M-CSF by SYBR green-dye based qRT-PCR analysis; format: functional, cell-based; conditions: TDE = time-dependent effect
Bone marrow monocyte [4] = experiment: Inhibition of RANKL-induced C-src mRNA expression in C57BL/6 mouse bone marrow monocytes at 10 uM in presence of M-CSF by SYBR green-dye based qRT-PCR analysis; format: functional, cell-based; conditions: TDE = time-dependent effect
Bone marrow monocyte [5] = experiment: Inhibition of RANKL-induced cathepsin K mRNA expression in C57BL/6 mouse bone marrow monocytes at 10 uM in presence of M-CSF by SYBR green-dye based qRT-PCR analysis; format: functional, cell-based; conditions: TDE = time-dependent effect
Bone marrow monocyte [6] = experiment: Inhibition of RANKL-induced CTR mRNA expression in C57BL/6 mouse bone marrow monocytes at 10 uM in presence of M-CSF by SYBR green-dye based qRT-PCR analysis; format: functional, cell-based; conditions: TDE = time-dependent effect
Bone marrow monocyte [7] = experiment: Inhibition of RANKL-induced CTR mRNA expression in C57BL/6 mouse bone marrow monocytes measured after 5 days in presence of M-CSF by SYBR green-dye based qRT-PCR analysis; format: functional, cell-based
Bone marrow monocyte [8] = experiment: Inhibition of RANKL-induced C-src mRNA expression in C57BL/6 mouse bone marrow monocytes measured after 5 days in presence of M-CSF by SYBR green-dye based qRT-PCR analysis; format: functional, cell-based
Bone marrow monocyte [9] = experiment: Inhibition of RANKL-induced cathepsin K mRNA expression in C57BL/6 mouse bone marrow monocytes measured after 5 days in presence of M-CSF by SYBR green-dye based qRT-PCR analysis; format: functional, cell-based
Bone marrow monocyte [10] = experiment: Inhibition of RANKL-induced TRAP mRNA expression in C57BL/6 mouse bone marrow monocytes measured after 5 days in presence of M-CSF by SYBR green-dye based qRT-PCR analysis; format: functional, cell-based
Bone marrow monocyte [11] = experiment: Inhibition of RANKL-induced NFATc1 mRNA expression in C57BL/6 mouse bone marrow monocytes measured after 5 days in presence of M-CSF by SYBR green-dye based qRT-PCR analysis; format: functional, cell-based
[12] = Inhibition of RANKL-induced C57BL/6 mouse bone marrow monocytes differentiation into osteoclasts at 2 uM after 6 days in presence of M-CSF by tartrate-resistant acid phosphatase staining based assay relative to control; format: functional; conditions: C57BL/6, Bone marrow monocyte, 144 h
[13] = Inhibition of RANKL-induced C57BL/6 mouse bone marrow monocytes differentiation into osteoclasts at 0.5 uM after 6 days in presence of M-CSF by tartrate-resistant acid phosphatase staining based assay relative to control; format: functional; conditions: C57BL/6, Bone marrow monocyte, 144 h
[14] = (§1) Inhibition of RANKL-induced C57BL/6 mouse bone marrow monocytes differentiation into osteoclasts after 6 days in presence of M-CSF by tartrate-resistant acid phosphatase staining based assay; format: functional, cell-based; conditions: C57BL/6, Bone marrow monocyte, 144 h
Bone marrow monocyte [15] = experiment: as §1; format: functional, cell-based
[16] = Potency index, ratio of maslinic acid IC50 to compound IC50 for RANKL-induced C57BL/6 mouse bone marrow monocytes differentiation into osteoclasts; format: functional, Bone marrow monocyte
[17] = Cytotoxicity against C57BL/6 mouse bone marrow monocytes assessed as reduction in cell viability at 2 uM after 72 hrs in presence of M-CSF by MTS assay; format: cell-based; conditions: bone marrow monocyte
[18] = Cytotoxicity against C57BL/6 mouse bone marrow monocytes assessed as reduction in cell viability at 20 uM after 72 hrs in presence of M-CSF by MTS assay; format: cell-based; conditions: bone marrow monocyte
[19] = Cytotoxicity against C57BL/6 mouse bone marrow monocytes assessed as reduction in cell viability after 72 hrs in presence of M-CSF by MTS assay; format: cell-based; conditions: C57BL/6, Bone marrow monocyte
[20] = Selectivity index, ratio of IC50 for C57BL/6 mouse bone marrow monocytes to IC50 for RANKL-induced C57BL/6 mouse bone marrow monocytes differentiation into osteoclasts; parameters: species or system Bone marrow monocyte
[21] = Effect on osteblast differentiation in mouse Mesenchymal stem cells at 2 to 10 uM measured after 7 days in presence of dexamethasone/b-glycerophosphate/Vitamin C by ALP staining assay; format: cell-based; conditions: mesenchymal stem cell, 168 h
Mus musculus [22] = experiment: Toxicity in ovariectomized C57BL/6 mouse assessed as effect on body weight at 5 to 20 mg/kg, ip administered for 60 days measured every 7 days during compound dosing; format: organism-based; conditions: in vivo
Mus musculus [23] = experiment: Protection against ovariectomized-induced osteoporosis in C57BL/6 mouse assessed as increase in bone mineral density of femur at 20 mg/kg, ip administered for 60 days by micro computed tomography; format: functional, organism-based
Mus musculus [24] = experiment: Protection against ovariectomized-induced osteoporosis in C57BL/6 mouse assessed as increase in ratio of bone volume to tissue volume of femur at 20 mg/kg, ip administered for 60 days by micro computed tomography; format: functional, organism-based
Mus musculus [25] = experiment: Protection against ovariectomized-induced osteoporosis in C57BL/6 mouse assessed as increase in trabecular number of femur at 20 mg/kg, ip administered for 60 days by micro computed tomography; format: functional, organism-based
Mus musculus [26] = experiment: Protection against ovariectomized-induced osteoporosis in C57BL/6 mouse assessed as increase in trabecular thickness of femur at 20 mg/kg, ip administered for 60 days by micro computed tomography; format: functional, organism-based
Mus musculus [27] = experiment: Protection against ovariectomized-induced osteoporosis in C57BL/6 mouse assessed as reduction in trabecular separation of femur at 20 mg/kg, ip administered for 60 days by micro computed tomography; format: functional, organism-based
Mus musculus [28] = experiment: Protection against ovariectomized-induced osteoporosis in C57BL/6 mouse assessed as reduction in femur structure model index at 20 mg/kg, ip administered for 60 days by micro computed tomography; format: functional, organism-based
Mus musculus [29] = experiment: Inhibition of ovariectomized-induced osteoclast activity in C57BL/6 mouse femur at 20 mg/kg, ip administered for 60 days by tartrate-resistant acid phosphatase staining method; format: functional, organism-based
Mus musculus [30] = experiment: Inhibition of ovariectomized-induced osteoclast activity in C57BL/6 mouse femur at 5 mg/kg, ip administered for 60 days by tartrate-resistant acid phosphatase staining; format: functional, organism-based
Mus musculus [31] = experiment: Anti-osteoporotic activity in ovariectomized-induced osteoporosis in C57BL/6 mouse assessed as increase in bone strength at 20 mg/kg, ip administered for 60 days by three point bending test; format: functional, organism-based
Mus musculus [32] = species: Mus musculus; experiment: Inhibition of RANKL-induced IKK mediated IkappaBalpha degradation in mouse […] cells at 10 uM pretreated for 4 hrs followed by RANKL stimulation measured for 60 mins by Western blot method; format: cell-based
Mus musculus [33] = species: Mus musculus; experiment: Inhibition of RANKL-induced IKK-mediated NF-kappa-B p65 phosphorylation in mouse […] cells at 10 uM pretreated for 4 hrs followed by RANKL stimulation measured for 60 mins by Western blot method; format: cell-based
Mus musculus [34] = species: Mus musculus; experiment: Inhibition of RANKL-induced ERK phosphorylation in mouse […] cells at 10 uM pretreated for 4 hrs followed by RANKL stimulation measured for 60 mins by Western blot method; format: cell-based
[35] = molecular target: MAP kinase p38 (Mus musculus) (UniProt P47811+O08911+Q9WUI1+Q9Z1B7); experiment: Inhibition of RANKL-induced p38 phosphorylation in mouse […] cells at 10 uM pretreated for 4 hrs followed by RANKL stimulation measured for 60 mins by Western blot method; format: cell-based
Mus musculus [36] = species: Mus musculus; experiment: Inhibition of RANKL-induced JNK phosphorylation in mouse […] cells at 10 uM pretreated for 4 hrs followed by RANKL stimulation measured for 60 mins by Western blot method; format: cell-based

CNC(=O)c1cc2c(cc1OC)[C@@]1(C)Cc3nc(C)oc3C(C)(C)[C@@H]1CC2
inhibition at 0.1 µM [1]: 72.3%
inhibition (Bone marrow monocyte [2]): Tde
inhibition (Bone marrow monocyte [3]): Tde
inhibition (Bone marrow monocyte [4]): Tde
inhibition (Bone marrow monocyte [5]): Tde
inhibition (Bone marrow monocyte [6]): Tde
inhibition (Bone marrow monocyte [7]): Dose-dependent effect
inhibition (Bone marrow monocyte [8]): Dose-dependent effect
inhibition (Bone marrow monocyte [9]): Dose-dependent effect
inhibition (Bone marrow monocyte [10]): Dose-dependent effect
inhibition (Bone marrow monocyte [11]): Dose-dependent effect
inhibition at 2 µM [12]: 100%
inhibition at 0.5 µM [13]: 92.7%
IC50 [14]: 0.04 µM
inhibition (Bone marrow monocyte [15]): Dose-dependent effect
Ratio IC50 [16]: 16
Activity [17]: Non-Toxic
Activity [18]: Toxic
IC50 [19]: 88.3 µM
Ratio IC50 [20]: 2208
Activity [21]: Non-Toxic
Activity (Mus musculus [22]): Non-Toxic
Activity (Mus musculus [23]): Active
Activity (Mus musculus [24]): Active
Activity (Mus musculus [25]): Active
Activity (Mus musculus [26]): Active
Activity (Mus musculus [27]): Active
Activity (Mus musculus [28]): Active
inhibition (Mus musculus [29]): Active
inhibition (Mus musculus [30]): inactive
Activity (Mus musculus [31]): Active
inhibition (Mus musculus [32]): Active
inhibition (Mus musculus [33]): Active
inhibition (Mus musculus [34]): Active
inhibition [35]: Active
inhibition (Mus musculus [36]): Active
